According to paper PMC7957705 (Molecules, 2021):
Where a SMILES comes first, the peptide text is derived from it. Bridges are numbered along the chain shown (N, C = ends). Triazole bridges read from a SMILES are 1,4-linked. [ ]: non-standard residue; d: D form. The star is where a group is joined. Benzoyl(4-guanidino) = N=C(N)Nc1ccc(C(=O)*)cc1; Aha = [N-]=[N+]=NCC[C@H](N)C(=O)O; β3hV = CC(C)[C@H](N)CC(=O)O; Nle = CCCC[C@H](N)C(=O)O; Pra = C#CC[C@H](N)C(=O)O

Key:
[1] = target: T1, human MCH-R1 (Homo sapiens, UniProt Q99705); assay: Binding displacement of [125I]-[Phe13,Tyr19]-MCH at membranes expressing human MCH-R1
T1 construct: expressed in transfected cells
T1 sequence (Q99705 whole entry): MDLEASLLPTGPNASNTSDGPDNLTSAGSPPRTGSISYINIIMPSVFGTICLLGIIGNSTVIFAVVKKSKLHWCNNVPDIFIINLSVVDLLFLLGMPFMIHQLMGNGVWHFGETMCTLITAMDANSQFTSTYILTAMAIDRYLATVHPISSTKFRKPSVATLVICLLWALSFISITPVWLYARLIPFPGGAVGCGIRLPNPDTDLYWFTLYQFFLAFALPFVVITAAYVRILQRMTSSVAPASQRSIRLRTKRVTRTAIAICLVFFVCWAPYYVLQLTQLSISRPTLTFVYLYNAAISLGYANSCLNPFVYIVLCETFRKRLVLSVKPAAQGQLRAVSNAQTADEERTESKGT
Protocol: Stable cell lines were obligatory for all receptor programs. We cloned the human receptor and established the cell line as previously described. In brief, HEK293 (HEK) cells were grown in Dulbecco’s Modified Eagle medium (DMEM) supplemented with 10% fetal calf serum, 2 mM glutamine, 100 IU/mL penicillin and […] streptomycin. They were seeded at 5 × 10^6 cells in T75 cm^2 culture flasks. One day later, they were transfected with […] of the pcDNA3.1 (Invitrogen, Groningen, The Netherlands) containing the human MCH-R1 using lipofectamine (Life Technologies, Cergy Pontoise, France), as previously described. One day later, cells were trypsinized, resuspended in a complete DMEM medium containing […] of geneticin and seeded at different dilutions in 96-well plates which were kept for 2 to 3 weeks in a humidified CO2 incubator. At the end of the selection period, isolated clones were picked up, amplified, and further characterized by cyclic AMP experiments. For each cell line, one positive clone was subcloned before being used for all of the cyclic AMP, [^35S]-GTPγS and receptor binding experiments necessary to characterize them. The stable HEK293 cell line expressing the human MCH-R1 was HEK-hMCH-R1.
Membrane preparations were classically made as previously described. In brief, the HEK-hMCH-R cell line was grown to confluency, harvested in PBS buffer containing 2 mM EDTA and centrifuged at 10,000× g for 5 min (4°C). The resulting pellet was suspended in 20 mM Hepes buffer (pH 7.5), containing 5 mM EGTA and homogenized using a Kinematica polytron. The homogenate was then centrifuged (95,000× g, 30 min, 4 °C) and the resulting pellet was suspended in 50 mM HEPES buffer (pH 7.5), containing 10 mM MgCl2 and 2 mM EGTA. Aliquots of membrane preparations were stored at −80 °C until use. Binding has been described in numerous publications and the test was based on Mac Donald et al.’s description. […] Nonspecific binding is determined in the presence of 0.1 μM MCH. […] The filters are dried and then counted for radioactivity in a scintillation counter (Topcount, Packard) using a scintillation cocktail (Microscint 0, Packard). The results are expressed as percentage inhibition of the control radioligand specific binding. The standard reference compound is MCH, which was tested in each experiment at 8 concentrations to obtain a competition curve from which its IC50 is calculated. The high level of assay robustness and reproducibility of each control monitored over several decades (internal data base, Eurofins) and included in every assay ensure results’ reliability even when performed only twice. […]

[2] = test system: fa/fa rats; assay: Genetic model of obesity (fa/fa rats); type: in vivo, rat; details: data not shown
[3] = test system: high-fat diet-induced obese C57BL/6 mice; details: mouse, in vivo
Protocol: Male C57BL/6 mice at 4 weeks of age were provided by BioLasco Taiwan (under Charles River Laboratories Licensee). All animals were maintained in an environment with well-controlled temperature (20–24 °C) and humidity (30–70%) with 12 h light/dark cycles. Free access to standard lab diet (MFG (Oriental Yeast Co., Ltd., Japan)) and autoclaved tap water was granted. […]
The protocol was performed for all groups and all animals. […] Body weight was recorded three times weekly from Week 9. Food/water intake was recorded twice weekly from Week 9. […] At the termination in Week 20 (Day 141), the adipose tissue weight, including epididymal, mesenteric, inguinal, retroperitoneal, and brown fat, was measured after the animals were sacrificed. […] The following parameters were measured: (1) body weight three times weekly; (2) food/water intake twice weekly; (3) blood chemistry in Weeks 8 (before dosing), 16 and 20 including glucose, insulin, serum lipids (triglycerides (TG), total cholesterol (TC), AST, alanine aminotransferase (ALT), uric acid, creatinine, potassium and sodium through 16-h fasting animals; and finally, (4) total body fat (including visceral and subcutaneous fat) in Week 20.

CCCC[C@@H]1NC(=O)[C@@H](NC(=O)c2ccc(NC(=N)N)cc2)CCn2cc(nn2)C[C@@H](C(=O)N[C@@H](Cc2c[nH]c3ccccc23)C(=O)O)NC(=O)[C@@H]2CCCN2C(=O)[C@H](CCCNC(=N)N)NC(=O)C[C@H](C(C)C)NC(=O)[C@H](CCCNC(=N)N)NC(=O)[C@H](CC(C)C)NC1=O [GPS18169] ({Benzoyl(4-guanidino)}-[Aha][Nle]LR[β3hV]RP[Pra]W-OH; triazole 1-8) was tested, and the “affinity at the MCH-R1 receptor (in words)” value [1] was “low nanomolar range”, the “changes between treated and untreated animals” value [2] was “no changes were recorded” and the “overt toxicities and behavioral modifications” value [3] was “Neither overt toxicities nor behavioral modifications were observed”.
